The values that follow come from patent US20200329698A1, “COMPOSITIONS FOR ORGAN GRAFT PRESERVATION AND METHODS OF USE” (Nobilis Therapeutics, Inc., priority 2019, published 2020).

For experiment [1], the system named is rat renal grafts from DBD donation or DCD donation. How it is done:
Rat renal transplantation was performed. Rat donor kidneys were transplanted orthotopically into recipients by using standard microvascular techniques. […] After the specified period of cold ischemia, the recipient's left kidney was extracted, and the donor renal vein was connected to the recipient renal vein through end-to-end anastomosis. The arterial anastomosis between the donor aortic patch was connected to the recipient aorta in an end-to-side manner. Urinary reconstruction was performed by ureter-to-bladder anastomosis. The total surgical ischemia time was restricted to <45 min. The contralateral kidney was removed immediately after engraftment.
Tumor necrosis factor-α (TNF-α) in the culture medium were detected by ELISA (Human TNF-α ELISA kits, INVITROGEN®, UK). Rat lung tissue and serum TNF-α were measured by ELISA (Rat TNF-α ELISA kits, INVITROGEN®, UK).
MTS was performed on paraffin-embedded tissue according to the manufacturer's instructions (MTS kit; SIGMA-ALDRICH®, Ltd., Poole, UK). The amount of collagen deposition (percentage of MTS-stained area) was then digitally quantified with ImageJ software (U.S. National Institutes of Health, Bethesda, Md., USA).
Blood samples were collected when the animals were euthanized. After centrifugation, serum urea and creatinine concentrations were measured with an AU2700 analyzer (OLYMPUS).
(§1) A rat renal graft machine perfusion model was developed, (see FIG. 1B) to simulate the renal graft preservation process. A series of experiments were conducted using the Fischer-to-Lewis allogeneic renal transplant model. Grafts from donors after brain death (DBD) or cardiac arrest (DCD) were used. The preserving solution was saturated with dexmedetomidine at 0.1 nM[32]. The grafts were extracted and then machine-perfused with UW solution at 4° C.[18] with a flow rate of 1.5-2 ml/min [39] for 4 hours and then kept in the preserving solution until 24 hours. Grafts were then transplanted into Lewis recipient immediately following extraction (cold-ischemia 0 hr), or stored in preservative solution for 24 hr (cold-ischemia 24 hr), The orthotopic renal transplantation into Lewis recipients was conducted and their contralateral kidneys were removed at the end of surgery. The recipient received cyclosporine A (5 mg/kg/day intramuscular injection per day) for 10 days to prevent acute immune rejection.
With respect to FIGS. 4A-4J, Fischer rat renal grafts from DBD donation or DCD donation were stored in UW preservative solution at 4° C., saturated with DEX for up to 24 hrs (Cold ischemia CI 24 hr), grafts harvested from donor (cold ischemia CI 0 hr) serves as control. (A and B) Serum creatinine and urea concentration were analyzed 24 hours after transplantation (n=6). (C and D) Tissue cytokine TNF-α and IL-1β concentration was assessed by ELISA. (E) TUNEL staining of renal tubules in renal cortices 24 hours after transplantation. Scale bar=50 μm. In DCD grafts, Infiltrated CD68+ macrophages (Red fluoresce; F) and renal fibrosis (blue MTS staining; G) on day 8 after transplantation were assessed. In both DCD and DBD grafts, (H) Analysis of the percentage of TUNEL+ tubular cells in renal cortices. (I) The number of CD68+ macrophage, and (J) the area of MTS staining. Data is expressed as mean±SD (n=6). […] CI: cold ischemia, Vh: Vehicle, Dex: Dexmedetomidine.

Experiment [2] relates to ex vivo renal grafts from brain death or cardiac arrest donors. In words: Rat hypothermic machine perfusion model. The conditions noted are these: exposure of ex vivo grafts prior to engraftment.
In experiment [3] the test system is rat renal grafts from DBD donation or DCD donation. The conditions noted are these: Dex 0.1 nM in UW at 4° C., cold ischemia 24 hr, vs vehicle. How it is done:
For in vivo fluorescence or DAB staining, 25-μm frozen lung sections were incubated with rabbit anti-Rip1 (1:200, SANTA CRUZ BIOTECHNOLOGY®), rabbit anti-Rip3 (1:200, SANTA CRUZ BIOTECHNOLOGY®), mouse anti-HMGB-1 (1:200, Abcam), Goat anti-TLR-4 (1:200, SANTA CRUZ BIOTECHNOLOGY®), rabbit anti-Nrf-2 (1:200, SANTA CRUZ BIOTECHNOLOGY®), mouse anti-SOD-1 (1:200, Abcam), mouse anti-NQO-1 (1:200 Abcam), rabbit anti-3-nitrotyrosine (1:200, Abcam) and rabbit anti-4-hydroxynonenal (1:200, Abcam) at 4° C. overnight. After washing with PBST, the slides were incubated with fluorochrome-conjugated secondary antibodies (MILLIPORE™, UK). For double-labelled immunofluorescence, lung samples were incubated with the first primary antibody overnight, followed by the first secondary antibody, and then the second primary antibody and the second secondary antibody. The slides were counterstained with nuclear dye DAPI and mounted with […]® Mounting Medium (Vector lab, USA). Sections were examined using an OLYMPUS™ (Watford, UK) BX4 microscope under constant exposure level. Immunofluorescence was quantified using ImageJ (National Institutes of Health, Maryland, USA) and the background was subtracted. Ten representative regions per section (in vivo) or field (in vitro) were randomly selected by an assessor blinded to the treatment groups. Values were then calculated as percentages of the mean value for naïve controls and expressed as percentage fluorescence intensity.
Lung alveolar cell death was detected by the in situ TUNEL assay (MILLIPORE™) according to the manufacturer's instructions. TUNEL nuclei were visualized by green FITC fluorescence.
as §1

Experiment [4] has as its system JAK/STAT signaling pathway. The conditions noted are these: cited from earlier work.
[5] abbreviates: after transplantation, graft stored with Dex 0.1 nM, CI 24 hr.
[6] abbreviates: day 16 after surgery, graft stored with Dex 0.1 nM.

Turning to `Cc1cccc([C@H](C)c2cnc[nH]2)c1C` [Dexmedetomidine], the “cell death (number of TUNEL+ cells) in renal cortices” value in experiment [1] (24 hours after transplantation, graft stored with Dex 0.1 nM) is “reduced”. For the same molecule, in experiment [1] (setting [5]), the “tissue level of cytokine IL-1β (ELISA)” value is recorded as “reduced tissue level” and the “tissue level of cytokine TNF-α (ELISA)” value is “reduced tissue level”. In addition, the “renal functional recovery (serum creatinine and urea)” value in experiment [1] (day 1 (24 hours) after transplantation, graft stored with Dex 0.1 nM, CI 24 hr) was “induced a quick functional recovery”. In experiment [1] (setting [6]), the “macrophage infiltration (number of CD68+ cells)” value is on record as “attenuated” and the “renal fibrosis (MTS staining)” value is recorded as “attenuated”. Further, the “protection in ex vivo renal allograft from cardiac arrest donation” value in experiment [1] (overall conclusion) is listed as “conferred significant protection”. In experiment [2], the “organ graft injury, histologically and functionally” value is “prevent organ graft injury”. In addition, in experiment [3], the “Heme oxygenase 1 (HO-1) expression, immunofluorescence” value is recorded as “significantly increased”; the “Nrf2 expression, immunofluorescence” value is given as “significantly increased”; the “necroptosis (expression of MLKL)” value is recorded as “suppressed necroptosis”; the “renal graft architecture / morphology (H&E staining, injury scoring)” value is recorded as “preserved the renal graft architecture”. Besides, the “tissue injury in the renal cortex (TUNEL cell death staining)” value in experiment [3] is given as “reduced tissue injury in the renal cortex”. The “level of p-JAK2 and its downstream effectors p-STAT1 and STATS” value in experiment [4] (mice, warm ischemia-reperfusion injury) is “significant reduced level”. In experiment [4] (mouse, in vivo), the long-term renal function result was “long-term functional renoprotection” and the survival entry is recorded as “increased survival”. For the same molecule, the “tubular architecture and function following renal ischemia” value in experiment [4] (pre- or post-treatment) was “improved tubular architecture and function”.
